Data reported in ChEMBL document CHEMBL4831556, “Discovery of a Novel Potent and Selective Calcium Release-Activated Calcium Channel Inhibitor: 2,6-Difluoro-N-(2'-methyl-3'-(4-methyl-5-oxo-4,5-dihydro-1,3,4-oxadiazol-2-yl)-[1,1'-biphenyl]-4-yl)benzamide. Structure-Activity Relationship and Preclinical Characterization” (J Med Chem, 2021).

Key:
[1] = Metabolic stability in monkey liver microsomes preincubated for 5 mins followed by NADPH addition and measured upto 30 mins by LC-MS/MS analysis; format: ADME, Macaca mulatta, Microsome; conditions: rhesus monkey, 0.5 h, time <=35 min
[2] = Volume of distribution at steady state in Lewis rat at 1 mg/kg, iv measured upto 24 hrs by LC-MS/MS analysis; format: ADME, organism-based; conditions: in vivo, read-out: Vdss
[3] = molecular target: T1, Cytochrome P450 2A6 (Homo sapiens, UniProt P11509); assay: Inhibition of CYP2A6 in human liver microsomes at 10 uM by LC-MS/MS analysis; format: ADME
T1 sequence (P11509 whole entry): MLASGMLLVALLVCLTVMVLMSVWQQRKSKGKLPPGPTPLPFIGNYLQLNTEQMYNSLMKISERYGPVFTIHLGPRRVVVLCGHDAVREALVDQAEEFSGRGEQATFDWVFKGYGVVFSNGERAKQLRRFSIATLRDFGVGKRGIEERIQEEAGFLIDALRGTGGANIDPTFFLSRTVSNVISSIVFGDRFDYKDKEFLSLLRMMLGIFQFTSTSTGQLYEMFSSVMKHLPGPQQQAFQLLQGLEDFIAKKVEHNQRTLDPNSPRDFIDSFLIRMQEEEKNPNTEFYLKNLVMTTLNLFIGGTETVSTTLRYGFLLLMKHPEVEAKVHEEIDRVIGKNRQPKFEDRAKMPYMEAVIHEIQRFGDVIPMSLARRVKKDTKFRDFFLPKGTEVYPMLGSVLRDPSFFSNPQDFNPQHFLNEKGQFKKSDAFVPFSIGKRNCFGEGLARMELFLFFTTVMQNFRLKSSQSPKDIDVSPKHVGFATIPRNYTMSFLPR

[4] = Tmax in BALB/c mouse at 1 mg/kg, iv measured upto 24 hrs by LC-MS/MS analysis; format: ADME, organism-based; conditions: in vivo
[5] = Cmax in BALB/c mouse at 1 mg/kg, iv measured upto 24 hrs by LC-MS/MS analysis; format: ADME, organism-based; design: route intravenous, dose 1 mg/kg, time <=24; conditions: in vivo
[6] = molecular target: Cytochrome P450 3A4 (Homo sapiens, UniProt P08684); assay: Inhibition of CYP3A4 in human liver microsomes at 10 uM by LC-MS/MS analysis; format: ADME
[7] = Plasma protein binding; format: ADME, cell-free; conditions: read-out: PPB
[8] = Clearance in BALB/c mouse at 1 mg/kg, iv measured upto 24 hrs by LC-MS/MS analysis; format: ADME, organism-based; conditions: in vivo
[9] = Metabolic stability in human liver microsomes preincubated for 5 mins followed by NADPH addition and measured upto 30 mins by LC-MS/MS analysis; format: ADME, Microsome; conditions: 0.5 h, time <=35 min
[10] = AUClast in BALB/c mouse at 1 mg/kg, iv measured upto 24 hrs by LC-MS/MS analysis; format: ADME, organism-based; design: route intravenous, dose 1 mg/kg, time <=24; conditions: in vivo
[11] = Apparent permeability across apical to basolateral side in human Caco-2 cells at 5 uM measured upto 120 mins in orbital shaker; format: ADME, cell-based
[12] = Half life in BALB/c mouse at 10 mg/kg, po measured upto 24 hrs by LC-MS/MS analysis; format: ADME, organism-based; conditions: in vivo
[13] = Volume of distribution at steady state in BALB/c mouse at 1 mg/kg, iv measured upto 24 hrs by LC-MS/MS analysis; format: ADME, organism-based; conditions: in vivo, read-out: Vdss
[14] = Apparent permeability across basolateral to apical side in human Caco-2 cells at 5 uM measured upto 120 mins in orbital shaker; format: ADME, cell-based
[15] = Cmax in Lewis rat at 1 mg/kg, iv measured upto 24 hrs by LC-MS/MS analysis; format: ADME, organism-based; design: route intravenous, dose 1 mg/kg, time <=24; conditions: in vivo
[16] = Clearance in Lewis rat at 1 mg/kg, iv measured upto 24 hrs by LC-MS/MS analysis; format: ADME, organism-based; conditions: in vivo
[17] = molecular target: Cytochrome P450 2D6 (Homo sapiens, UniProt P10635); assay: Inhibition of CYP2D6 in human liver microsomes at 10 uM by LC-MS/MS analysis; format: ADME
[18] = molecular target: Cytochrome P450 2C9 (Homo sapiens, UniProt P11712); assay: Inhibition of CYP2C9 in human liver microsomes at 10 uM by LC-MS/MS analysis; format: ADME
[19] = molecular target: Cytochrome P450 2E1 (Homo sapiens, UniProt P05181); assay: Inhibition of CYP2E1 in human liver microsomes at 10 uM by LC-MS/MS analysis; format: ADME
[20] = molecular target: T2, Cytochrome P450 1A2 (Homo sapiens, UniProt P05177); assay: Inhibition of CYP1A2 in human liver microsomes at 10 uM by LC-MS/MS analysis; format: ADME
T2 sequence (P05177 whole entry): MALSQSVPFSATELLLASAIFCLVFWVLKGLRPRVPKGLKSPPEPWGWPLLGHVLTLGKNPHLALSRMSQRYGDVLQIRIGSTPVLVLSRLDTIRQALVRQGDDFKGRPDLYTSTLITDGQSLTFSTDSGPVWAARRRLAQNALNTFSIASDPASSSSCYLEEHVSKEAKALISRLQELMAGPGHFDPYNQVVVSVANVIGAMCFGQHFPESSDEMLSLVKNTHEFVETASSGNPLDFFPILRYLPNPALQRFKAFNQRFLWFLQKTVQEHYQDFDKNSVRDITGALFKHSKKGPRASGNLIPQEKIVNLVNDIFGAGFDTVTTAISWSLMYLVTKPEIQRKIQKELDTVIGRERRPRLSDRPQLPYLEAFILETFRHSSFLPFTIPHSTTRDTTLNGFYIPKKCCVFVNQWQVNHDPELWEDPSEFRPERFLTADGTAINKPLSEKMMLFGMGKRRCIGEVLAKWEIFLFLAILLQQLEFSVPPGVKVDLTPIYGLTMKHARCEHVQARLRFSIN

[21] = molecular target: Cytochrome P450 2C19 (Homo sapiens, UniProt P33261); assay: Inhibition of CYP2C19 in human liver microsomes at 10 uM by LC-MS/MS analysis; format: ADME
[22] = AUClast in BALB/c mouse at 10 mg/kg, po measured upto 24 hrs by LC-MS/MS analysis; format: ADME, organism-based; design: route oral, dose 10 mg/kg, time <=24; conditions: in vivo
[23] = AUClast in Lewis rat at 10 mg/kg, po measured upto 24 hrs by LC-MS/MS analysis; format: ADME, organism-based; design: route oral, dose 10 mg/kg, time <=24; conditions: in vivo
[24] = Oral bioavailability in BALB/c mouse at 10 mg/kg measured upto 24 hrs by LC-MS/MS analysis; format: ADME, organism-based; conditions: in vivo
[25] = AUClast in Lewis rat at 1 mg/kg, iv measured upto 24 hrs by LC-MS/MS analysis; format: ADME, organism-based; design: route intravenous, dose 1 mg/kg, time <=24; conditions: in vivo
[26] = Tmax in BALB/c mouse at 10 mg/kg, po measured upto 24 hrs by LC-MS/MS analysis; format: ADME, organism-based; conditions: in vivo
[27] = Tmax in Lewis rat at 10 mg/kg, po measured upto 24 hrs by LC-MS/MS analysis; format: ADME, organism-based; conditions: in vivo
[28] = Cmax in Lewis rat at 10 mg/kg, po measured upto 24 hrs by LC-MS/MS analysis; format: ADME, organism-based; design: route oral, dose 10 mg/kg, time <=24; conditions: in vivo
[29] = Metabolic stability in mouse liver microsomes preincubated for 5 mins followed by NADPH addition and measured upto 30 mins by LC-MS/MS analysis; format: ADME, Microsome; conditions: 0.5 h, time <=35 min
[30] = Half life in BALB/c mouse at 1 mg/kg, iv measured upto 24 hrs by LC-MS/MS analysis; format: ADME, organism-based; conditions: in vivo
[31] = Cmax in BALB/c mouse at 10 mg/kg, po measured upto 24 hrs by LC-MS/MS analysis; format: ADME, organism-based; design: route oral, dose 10 mg/kg, time <=24; conditions: in vivo

Chain of Cytochrome P450 2D6 (P10635 whole entry): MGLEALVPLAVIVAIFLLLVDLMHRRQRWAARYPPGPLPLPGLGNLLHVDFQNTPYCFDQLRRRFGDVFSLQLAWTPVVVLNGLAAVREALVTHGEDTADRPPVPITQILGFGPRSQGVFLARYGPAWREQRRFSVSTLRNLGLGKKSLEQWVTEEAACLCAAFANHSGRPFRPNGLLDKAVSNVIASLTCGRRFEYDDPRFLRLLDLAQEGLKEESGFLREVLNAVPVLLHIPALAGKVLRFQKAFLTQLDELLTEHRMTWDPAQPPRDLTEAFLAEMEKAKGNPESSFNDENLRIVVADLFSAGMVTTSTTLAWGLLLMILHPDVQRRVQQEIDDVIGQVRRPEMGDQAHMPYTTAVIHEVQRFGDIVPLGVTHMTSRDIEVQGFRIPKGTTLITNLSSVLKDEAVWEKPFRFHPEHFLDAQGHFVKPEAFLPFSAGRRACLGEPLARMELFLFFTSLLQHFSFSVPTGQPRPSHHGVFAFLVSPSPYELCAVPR
Chain of Cytochrome P450 2C19 (P33261 whole entry): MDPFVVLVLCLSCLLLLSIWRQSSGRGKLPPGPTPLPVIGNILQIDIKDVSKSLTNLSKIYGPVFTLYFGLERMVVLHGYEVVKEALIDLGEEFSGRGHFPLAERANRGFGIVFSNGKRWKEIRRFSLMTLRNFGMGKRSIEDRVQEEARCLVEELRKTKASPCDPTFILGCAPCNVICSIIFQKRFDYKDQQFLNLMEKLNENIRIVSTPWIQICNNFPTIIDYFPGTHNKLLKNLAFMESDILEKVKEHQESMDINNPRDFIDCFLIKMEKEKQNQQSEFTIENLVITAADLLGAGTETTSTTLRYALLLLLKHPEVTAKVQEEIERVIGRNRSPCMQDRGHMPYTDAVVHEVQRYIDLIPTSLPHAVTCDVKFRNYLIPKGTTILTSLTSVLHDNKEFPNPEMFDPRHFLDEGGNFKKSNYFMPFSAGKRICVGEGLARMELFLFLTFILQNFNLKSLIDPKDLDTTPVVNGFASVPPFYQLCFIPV
Chain of Cytochrome P450 3A4 (P08684 whole entry): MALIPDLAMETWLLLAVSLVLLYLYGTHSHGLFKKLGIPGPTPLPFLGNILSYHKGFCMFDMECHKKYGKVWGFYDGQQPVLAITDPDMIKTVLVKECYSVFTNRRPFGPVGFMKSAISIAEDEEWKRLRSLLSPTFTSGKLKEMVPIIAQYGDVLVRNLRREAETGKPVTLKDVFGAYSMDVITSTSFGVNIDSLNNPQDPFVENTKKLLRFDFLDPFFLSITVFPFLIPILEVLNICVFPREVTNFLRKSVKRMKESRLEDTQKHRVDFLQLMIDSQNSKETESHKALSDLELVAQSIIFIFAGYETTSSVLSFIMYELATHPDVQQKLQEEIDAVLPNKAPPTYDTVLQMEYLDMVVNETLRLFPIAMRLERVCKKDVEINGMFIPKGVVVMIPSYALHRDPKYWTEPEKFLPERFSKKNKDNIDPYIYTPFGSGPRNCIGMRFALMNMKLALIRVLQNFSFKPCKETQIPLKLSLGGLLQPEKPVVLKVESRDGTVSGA
Chain of Cytochrome P450 2E1 (P05181 whole entry): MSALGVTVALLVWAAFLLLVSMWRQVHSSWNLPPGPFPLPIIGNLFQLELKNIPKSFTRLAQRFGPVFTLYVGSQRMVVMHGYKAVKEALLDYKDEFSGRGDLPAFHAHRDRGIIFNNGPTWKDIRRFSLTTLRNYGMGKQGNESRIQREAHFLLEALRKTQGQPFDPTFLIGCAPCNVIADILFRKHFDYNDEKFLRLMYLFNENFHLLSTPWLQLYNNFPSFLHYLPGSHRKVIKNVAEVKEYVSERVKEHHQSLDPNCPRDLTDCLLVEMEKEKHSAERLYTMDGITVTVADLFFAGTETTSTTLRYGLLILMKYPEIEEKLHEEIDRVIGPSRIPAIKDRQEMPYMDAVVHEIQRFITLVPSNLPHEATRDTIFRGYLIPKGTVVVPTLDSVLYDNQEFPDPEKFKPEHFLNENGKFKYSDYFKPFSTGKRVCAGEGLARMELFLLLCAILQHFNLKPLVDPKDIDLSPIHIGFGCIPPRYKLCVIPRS
Chain of Cytochrome P450 2C9 (P11712 whole entry): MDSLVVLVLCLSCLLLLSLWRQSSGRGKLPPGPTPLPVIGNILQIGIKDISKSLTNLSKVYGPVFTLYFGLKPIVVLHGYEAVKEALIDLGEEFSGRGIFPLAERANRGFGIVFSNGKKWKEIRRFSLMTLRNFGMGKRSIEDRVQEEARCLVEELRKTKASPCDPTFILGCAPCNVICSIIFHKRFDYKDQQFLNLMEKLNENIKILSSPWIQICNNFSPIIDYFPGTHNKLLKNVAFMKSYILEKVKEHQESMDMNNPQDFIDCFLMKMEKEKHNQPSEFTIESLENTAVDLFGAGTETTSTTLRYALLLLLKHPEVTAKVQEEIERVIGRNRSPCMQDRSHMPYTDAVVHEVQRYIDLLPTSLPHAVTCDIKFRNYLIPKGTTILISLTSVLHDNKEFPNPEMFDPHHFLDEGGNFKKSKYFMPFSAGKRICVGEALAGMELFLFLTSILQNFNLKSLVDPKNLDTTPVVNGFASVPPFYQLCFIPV

## Cc1c(-c2ccc(NC(=O)c3c(F)cccc3F)cc2)cccc1-c1nn(C)c(=O)o1
[1]
  Stability: Stable
[2]
  Vd: 1 L/kg
[3]
  inhibition (INH): Not Active
[4]
  Tmax: 4.8 min
[5]
  Cmax: 4.2 µM
[6]
  inhibition (INH): Not Active
[7]
  fraction unbound: 0.01
[8]
  clearance: 5.2 mL/min/kg
[9]
  Stability: Stable
[10]
  AUC(0-t) at 24 h: 7.1 µM·h
[11]
  Papp A→B at 2 h, 5 µM: 14.1 ×10⁻⁶ cm/s
[12]
  half-life: 5.3 h
[13]
  Vd: 2.3 L/kg
[14]
  Papp B→A at 2 h, 5 µM: 6.2 ×10⁻⁶ cm/s
[15]
  Cmax: 4 µM
[16]
  clearance: 0.9 mL/min/kg
[17]
  inhibition (INH): Not Active
[18]
  inhibition (INH): Not Active
[19]
  inhibition (INH): Not Active
[20]
  inhibition (INH): Not Active
[21]
  inhibition (INH): Not Active
[22]
  AUC(0-t) at 24 h: 56 µM·h
[23]
  AUC(0-t) at 24 h: 353 µM·h
[24]
  bioavailability: 79%
[25]
  AUC(0-t) at 24 h: 29 µM·h
[26]
  Tmax: 1 h
[27]
  Tmax: 8 h
[28]
  Cmax: 20 µM
[29]
  Stability: Stable
[30]
  half-life: 6.4 h
[31]
  Cmax: 4 µM

## Cc1c(-c2ccc(NC(=O)c3c(F)cccc3Cl)cc2)cccc1-c1nn(C)c(=O)o1
[1]
  Stability: Stable
[2]
  Vd: 1 L/kg
[3]
  inhibition (INH): Not Active
[4]
  Tmax: 4.8 min
[5]
  Cmax: 4.3 µM
[6]
  inhibition (INH): Not Active
[7]
  fraction unbound: 0.01
[8]
  clearance: 8 mL/min/kg
[9]
  Stability: Stable
[10]
  AUC(0-t) at 24 h: 4 µM·h
[11]
  Papp A→B at 2 h, 5 µM: 12.3 ×10⁻⁶ cm/s
[12]
  half-life: 6 h
[13]
  Vd: 2.3 L/kg
[14]
  Papp B→A at 2 h, 5 µM: 4.5 ×10⁻⁶ cm/s
[15]
  Cmax: 5 µM
[16]
  clearance: 1 mL/min/kg
[17]
  inhibition (INH): Not Active
[18]
  inhibition (INH): Not Active
[19]
  inhibition (INH): Not Active
[20]
  inhibition (INH): Not Active
[21]
  inhibition (INH): Not Active
[22]
  AUC(0-t) at 24 h: 44 µM·h
[23]
  AUC(0-t) at 24 h: 167 µM·h
[24]
  bioavailability: 100%
[25]
  AUC(0-t) at 24 h: 28 µM·h
[26]
  Tmax: 1 h
[27]
  Tmax: 2 h
[28]
  Cmax: 10 µM
[29]
  Stability: Stable
[30]
  half-life: 5 h
[31]
  Cmax: 4.7 µM
